From patent US8124637B2, “Anthra [1, 2-d]imidazole-6,11-dione derivatives, preparation method and application thereof” (National Defense Medical Center, priority 2010, dated 2012)

Assays:
[1] = system: CCRF-CEM; assay: NCI 60-cell drug screen, one dose; format: cell-based, human; details: Leukemia CCRF-CEM, 1.00E−5 Molar
How it was run: (§1)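 Human cancer cells received test compound at one fixed level for 48 h, then SRB dye binding to cellular protein was read colorimetrically.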

[2] = system: PC-3; assay: NCI 60-cell drug screen, one dose; format: cell-based, human; details: Prostate Cancer PC-3, 1.00E−5 Molar
How it was run: as §1

[3] = system: EKVX; assay: NCI 60-cell drug screen, one dose; format: cell-based, human; details: Non-Small Cell Lung Cancer EKVX, 1.00E−5 Molar
How it was run: as §1

[4] = system: MOLT-4; assay: NCI 60-cell drug screen, one dose; format: cell-based, human; details: Leukemia MOLT-4, 1.00E−5 Molar
How it was run: as §1

[5] = system: NCI/ADR-RES; assay: NCI 60-cell drug screen, one dose; format: cell-based, human; details: Ovarian Cancer NCI/ADR-RES, 1.00E−5 Molar
How it was run: as §1

[6] = system: SNB-19; assay: NCI 60-cell drug screen, one dose; format: cell-based, human; details: CNS Cancer SNB-19, 1.00E−5 Molar
How it was run: as §1

[7] = system: NCI-H226; assay: NCI 60-cell drug screen, one dose; format: cell-based, human; details: Non-Small Cell Lung Cancer NCI-H226, 1.00E−5 Molar
How it was run: as §1

[8] = system: ACHN; assay: NCI 60-cell drug screen, one dose; format: cell-based, human; details: Renal Cancer ACHN, 1.00E−5 Molar
How it was run: as §1

[9] = system: OVCAR-3; assay: NCI 60-cell drug screen, one dose; format: cell-based, human; details: Ovarian Cancer OVCAR-3, 1.00E−5 Molar
How it was run: as §1

[10] = system: A549/ATCC; assay: NCI 60-cell drug screen, one dose; format: cell-based, human; details: Non-Small Cell Lung Cancer A549/ATCC, 1.00E−5 Molar
How it was run: as §1

[11] = system: NCI-H322M; assay: NCI 60-cell drug screen, one dose; format: cell-based, human; details: Non-Small Cell Lung Cancer NCI-H322M, 1.00E−5 Molar
How it was run: as §1

[12] = system: HOP-92; assay: NCI 60-cell drug screen, one dose; format: cell-based, human; details: Non-Small Cell Lung Cancer HOP-92, 1.00E−5 Molar
How it was run: as §1

[13] = system: IGROV1; assay: NCI 60-cell drug screen, one dose; format: cell-based, human; details: Ovarian Cancer IGROV1, 1.00E−5 Molar
How it was run: as §1

[14] = system: SR; assay: NCI 60-cell drug screen, one dose; format: cell-based, human; details: Leukemia SR, 1.00E−5 Molar
How it was run: as §1

[15] = system: DU145; assay: NCI 60-cell drug screen, one dose; format: cell-based, human; details: Prostate Cancer DU145, 1.00E−5 Molar
How it was run: as §1

[16] = system: MDA-MB-231/ATCC; assay: NCI 60-cell drug screen, one dose; format: cell-based, human; details: Breast Cancer MDA-MB-231/ATCC, 1.00E−5 Molar
How it was run: as §1

[17] = system: HT29; assay: NCI 60-cell drug screen, one dose; format: cell-based, human; details: Colon Cancer HT29, 1.00E−5 Molar
How it was run: as §1

[18] = system: HCT-116; assay: NCI 60-cell drug screen, one dose; format: cell-based, human; details: Colon Cancer HCT-116, 1.00E−5 Molar
How it was run: as §1

[19] = system: COLO 205; assay: NCI 60-cell drug screen, one dose; format: cell-based, human; details: Colon Cancer COLO 205, 1.00E−5 Molar
How it was run: as §1

[20] = system: KM12; assay: NCI 60-cell drug screen, one dose; format: cell-based, human; details: Colon Cancer KM12, 1.00E−5 Molar
How it was run: as §1

[21] = system: HCT-15; assay: NCI 60-cell drug screen, one dose; format: cell-based, human; details: Colon Cancer HCT-15, 1.00E−5 Molar
How it was run: as §1

[22] = system: SW-620; assay: NCI 60-cell drug screen, one dose; format: cell-based, human; details: Colon Cancer SW-620, 1.00E−5 Molar
How it was run: as §1

[23] = system: NCI-H460; assay: NCI 60-cell drug screen, one dose; format: cell-based, human; details: Non-Small Cell Lung Cancer NCI-H460, 1.00E−5 Molar
How it was run: as §1

[24] = system: NCI-H522; assay: NCI 60-cell drug screen, one dose; format: cell-based, human; details: Non-Small Cell Lung Cancer NCI-H522, 1.00E−5 Molar
How it was run: as §1

[25] = system: SF-295; assay: NCI 60-cell drug screen, one dose; format: cell-based, human; details: CNS Cancer SF-295, 1.00E−5 Molar
How it was run: as §1

[26] = system: HS 578-T; assay: NCI 60-cell drug screen, one dose; format: cell-based, human; details: Breast Cancer HS 578-T, 1.00E−5 Molar
How it was run: as §1

[27] = system: HCC-2998; assay: NCI 60-cell drug screen, one dose; format: cell-based, human; details: Colon Cancer HCC-2998, 1.00E−5 Molar
How it was run: as §1

[28] = system: OVCAR-8; assay: NCI 60-cell drug screen, one dose; format: cell-based, human; details: Ovarian Cancer OVCAR-8, 1.00E−5 Molar
How it was run: as §1

[29] = system: OVCAR-4; assay: NCI 60-cell drug screen, one dose; format: cell-based, human; details: Ovarian Cancer OVCAR-4, 1.00E−5 Molar
How it was run: as §1

[30] = MTT assay (relative cell survival), H1299; details: human, H1299 non-small cell lung cancer cells (PhTERT-SEAP), Relative MTT viability (%)
Procedure: Further, cells were subjected to MTT assay to compare the relative toxicity or effect of each compound on cell proliferation and activity.
The above-described cells are cultured in a 96-well plate, to which was added with 25 μl MTT solution, and cultured in a 37° C. carbon dioxide incubator for 4 hours. Then, 100 μl Lysis buffer is added and incubated in a 37° C. carbon dioxide incubator overnight. An ELISA reader (Bio-Rad Model 450) is used to read optical density (O.D.) at 550 nm.
After being subjected to different compound treatments for 72 hours, cells were treated with a fixed amount of MTT solution for 28 hours. Then, DMSO was used to dissolve back formazan, an O. D. value was detected at wavelength in the range of 550/670 nm, and calculated accordingly the cell survival rate (as shown in Table 1).

[31] = system: RXF 393; assay: NCI 60-cell drug screen, one dose; format: cell-based, human; details: Renal Cancer RXF 393, 1.00E−5 Molar
[32] = system: CAKI-1; assay: NCI 60-cell drug screen, one dose; format: cell-based, human; details: Renal Cancer CAKI-1, 1.00E−5 Molar
[33] = system: K562; assay: NCI 60-cell drug screen, one dose; format: cell-based, human; details: Leukemia K562, 1.00E−5 Molar

CN(CCc1ccccn1)Cc1nc2ccc3c(c2[nH]1)C(=O)c1ccccc1C3=O [CL07, 2-((N-methyl-2-(pyridin-2-yl)ethanamino)methyl)-1H-anthra[1,2-d]imidazole-6,11-dione]
Growth Percent [1]: 39.91% | Growth Percent [2]: 99.83% | Growth Percent [3]: 82.24% | Growth Percent [4]: 47.54% | Growth Percent [5]: 86.11% | Growth Percent [6]: 87.77% | Growth Percent [7]: 81.36% | Growth Percent [8]: 80.20% | Growth Percent [9]: 83.57% | Growth Percent [10]: 106.30% | Growth Percent [11]: 102.29% | Growth Percent [12]: 101.41% | Growth Percent [13]: 54.26% | Growth Percent [14]: 70.10% | Growth Percent [15]: 83.70% | Growth Percent [16]: 88.98% | Growth Percent [17]: 84.18% | Growth Percent [18]: 83.56% | Growth Percent [19]: 117.88% | Growth Percent [20]: 89.03% | Growth Percent [21]: 80.78% | Growth Percent [22]: 100.52% | Growth Percent [23]: 90.27% | Growth Percent [24]: 86.39% | Growth Percent [25]: 105.86% | Growth Percent [26]: 108.96% | Growth Percent [27]: 95.82% | Growth Percent [28]: 80.59% | Growth Percent [29]: 80.99% | viability at 72 h, 1 µM [30]: 104.3 ± 0.96%

O=C1c2ccccc2C(=O)c2c1ccc1nc(CN3CCN(c4ccccn4)CC3)[nH]c21 [CL28, 2-((4-(pyridin-2-yl)piperazin-1-yl)methyl)-1H-anthra[1,2-d]imidazole-6,11-dione]
Growth Percent [31]: 89.67% | Growth Percent [2]: 89.10% | Growth Percent [3]: 63.00% | Growth Percent [4]: 61.76% | Growth Percent [5]: 81.16% | Growth Percent [6]: 81.00% | Growth Percent [7]: 91.88% | Growth Percent [8]: 80.61% | Growth Percent [9]: 88.67% | Growth Percent [10]: 91.07% | Growth Percent [11]: 93.77% | Growth Percent [12]: 93.87% | Growth Percent [13]: 91.25% | Growth Percent [15]: 81.46% | Growth Percent [16]: 72.65% | Growth Percent [17]: 75.79% | Growth Percent [18]: 84.30% | Growth Percent [19]: 110.79% | Growth Percent [20]: 95.03% | Growth Percent [21]: 86.02% | Growth Percent [22]: 85.97% | Growth Percent [23]: 79.98% | Growth Percent [24]: 94.06% | Growth Percent [25]: 92.70% | Growth Percent [26]: 111.04% | Growth Percent [27]: 92.28% | Growth Percent [28]: 88.07% | Growth Percent [29]: 64.57% | Growth Percent [32]: 68.83% | viability at 72 h, 1 µM [30]: 90.5 ± 4.34% | viability at 72 h, 10 µM ([30]; 10 μM): 69.5% | viability at 72 h, 100 µM ([30]; 100 μM): 19.8% | Growth Percent [33]: 83.48%
